Source: patent US20120077803A1, “Uses Of NK Receptor Antagonists” (NOVARTIS AG, priority 2009, published 2012)

Legend:
[1] = system: dogs with flea allergic dermatitis; test: Pruritus intensity by Actical activity monitors in flea allergic dogs; format: in vivo, Beagle dogs; settings: for Actical day, mean (standard deviation): 6am-6pm; for Actical night, mean (standard deviation): 6pm-6am
Protocol: (§1) Flea-allergic laboratory Beagle dogs are infested with fleas. Fifty (50) Ctenocephalides felis fleas, 18 to 20 days old are released on the back of every dog on D1. Dogs are combed 48 hours (D3) after infestation to reduce the number of fleas (reduction of allergen charge).
Pruritus intensity: Pruritus intensity is evaluated using activity monitors (Actical™: Actiwatch™; Cambridge Neuorotechnology Ltd, Papworth Everard, UK) according to Nuttall and McEwan. (Nuttal T and McEwan N, “Objective measurement of pruritus in dogs: a preliminary study using activity monitors”. ESVD, 2006, 17 348-351). The physical activity monitors, mounted on collars, are placed around the dog's neck and tightened to the extent that they more with the skin but not so that they compress the underlying tissues. They were put on the dogs on D −5. […] This typically allows to see the difference in activity when the dogs have fleas and are developing pruritic and inflammatory lesions (i.e. dermatitis) and then again their activity during treatment with either the Test Compound or Prednisolone. The activity monitors are typically removed at the end of each phase on D12. Activity monitors measure the movement average within 15 seconds,
(§2) Skin lesions are allowed to develop until the total lesion score reaches ˜20. The Test Compound is then given orally at 50, 150 and 300 mg/day, divided into 2 doses, for 5 days. Prednisolone (10 mg/day, orally) is used as a comparator.
(§3) Lesion scores and Actical™ measurement values are typically observed on the following days: • Pre-value: before challenge with fleas • the day of challenge with fleas (Actical™ measurements only); • D1: the day when the total lesion score reached a sufficiently high value (average lesion score 20) and treatment of the animal started. • D2 to D6,
(§4) In the treatment group, lesion scores were taken from 8 dogs. Actical™ measurements were also taken from 6 of these dogs.

[2] = system: dogs with flea allergic dermatitis; test: Skin lesion scores (total lesion score) in dogs with flea-allergic dermatitis; format: in vivo, Beagle dogs
Protocol: as §1
Skin observations: before flea infestations (D −1) all dogs are typically examined to establish a baseline score for erythema, papules, crusts, scales, alopecia, and excoriation. From D1, daily clinical observations are performed. Each lesion is typically graded using a scale from 0 to 3:
0=no signs 1=mild 2=moderate 3=severe
as §2
Erythema: is typically an acute clinical sign of cutaneous inflammation defined as redness of the skin caused by capillary congestion which can be aggravated by scratching. Excoriation: is typically a punctuate or linear abrasion produced by mechanical means, usually involving only the epidermis but not uncommonly reaching the papillary dermis. […] Papule: is typically a circumscribed, solid elevation with no visible fluid, varying in size from a pinhead to 1 cm. […], formed when there is a high break in the follicle wall. In the presence of bacteria, papules become pustules. Crusts: are typically dried serum, pus, or blood usually mixed with epithelial and sometimes bacterial debris. Scales: are dry or greasy laminated masses of keratin.
as §3, §4
• Erythema*, • Excoriations*, • Papules/pustules • Self induced alopecia^o, and • Scales, • Erythema and excoriations are related to pruritus • Self induced alopecia is also related to pruritus but the improvement is […] after several weeks of treatment.
Day 1 of treatment when dogs reached a sufficient lesion score to initiate treatment (average 20). Pre-values (baseline).

[3] = 50 mg/day orally in 2 doses, day 1 (treatment start)
[4] = 50 mg/day orally in 2 doses, day 2
[5] = 50 mg/day orally in 2 doses, day 3
[6] = 50 mg/day orally in 2 doses, day 4
[7] = 50 mg/day orally in 2 doses, day 5
[8] = 50 mg/day orally in 2 doses, day 6
[9] = 150 mg/day orally in 2 doses, day 1 (treatment start)
[10] = 150 mg/day orally in 2 doses, day 2
[11] = 150 mg/day orally in 2 doses, day 3
[12] = 150 mg/day orally in 2 doses, day 4
[13] = 150 mg/day orally in 2 doses, day 5
[14] = 150 mg/day orally in 2 doses, day 6
[15] = 300 mg/day orally in 2 doses, day 1 (treatment start)
[16] = 300 mg/day orally in 2 doses, day 2
[17] = 300 mg/day orally in 2 doses, day 3
[18] = 300 mg/day orally in 2 doses, day 4
[19] = 300 mg/day orally in 2 doses, day 5
[20] = 300 mg/day orally in 2 doses, day 6

SMILES: CN(C(=O)c1cc(C(F)(F)F)cc(C(F)(F)F)c1)[C@@H](/C=C/C(=O)N[C@@H]1CCCCNC1=O)Cc1ccc(Cl)c(Cl)c1 [Test Compound, N-[(E)-(R)-1-(3,4-Dichloro-benzyl)-3-((R)-2-oxo-azepan-3-ylcarbamoyl)-allyl]-N-methyl-3,5-bis-trifluoromethyl-benzamide]
- Control of pruritic activity (daytime) compared with Prednisolone ([1]; 150 mg and 50 mg, after 5 days of BID administrations): equipotent to the Prednisolone controls
- Actical day, mean (standard deviation) [1, 3]: 88 (46) Average activity counts every 15 secs
- Actical day, mean (standard deviation) [1, 4]: 64 (40) Average activity counts every 15 secs
- Actical day, mean (standard deviation) [1, 5]: 72 (35) Average activity counts every 15 secs
- Actical day, mean (standard deviation) [1, 6]: 67 (37) Average activity counts every 15 secs
- Actical day, mean (standard deviation) [1, 7]: 62 (40) Average activity counts every 15 secs
- Actical day, mean (standard deviation) [1, 8]: 48 (31) Average activity counts every 15 secs
- Actical day, mean (standard deviation) ([1]; 50 mg/day orally in 2 doses, fleas (day of challenge)): 84 (47) Average activity counts every 15 secs
- Actical day, mean (standard deviation) ([1]; 50 mg/day orally in 2 doses, pre (before exposure to fleas)): 46 (16) Average activity counts every 15 secs
- Actical day, mean (standard deviation) [1, 9]: 58 (17) Average activity counts every 15 secs
- Actical day, mean (standard deviation) [1, 10]: 48 (13) Average activity counts every 15 secs
- Actical day, mean (standard deviation) [1, 11]: 53 (15) Average activity counts every 15 secs
- Actical day, mean (standard deviation) [1, 12]: 44 (17) Average activity counts every 15 secs
- Actical day, mean (standard deviation) [1, 13]: 60 (41) Average activity counts every 15 secs
- Actical day, mean (standard deviation) [1, 14]: 40 (21) Average activity counts every 15 secs
- Actical day, mean (standard deviation) ([1]; 150 mg/day orally in 2 doses, fleas (day of challenge)): 53 (16) Average activity counts every 15 secs
- Actical day, mean (standard deviation) ([1]; 150 mg/day orally in 2 doses, pre (before exposure to fleas)): 31 (8) Average activity counts every 15 secs
- Actical day, mean (standard deviation) [1, 15]: 114 (35) Average activity counts every 15 secs
- Actical day, mean (standard deviation) [1, 16]: 116 (77) Average activity counts every 15 secs
- Actical day, mean (standard deviation) [1, 17]: 99 (38) Average activity counts every 15 secs
- Actical day, mean (standard deviation) [1, 18]: 107 (28) Average activity counts every 15 secs
- Actical day, mean (standard deviation) [1, 19]: 129 (53) Average activity counts every 15 secs
- Actical day, mean (standard deviation) [1, 20]: 79 (21) Average activity counts every 15 secs
- Actical day, mean (standard deviation) ([1]; 300 mg/day orally in 2 doses, fleas (day of challenge)): 93 (37) Average activity counts every 15 secs
- Actical day, mean (standard deviation) ([1]; 300 mg/day orally in 2 doses, pre (before exposure to fleas)): 58 (21) Average activity counts every 15 secs
- Actical night, mean (standard deviation) ([1]; 50 mg/day orally in 2 doses, Fleas (day of challenge)): 6.8 (4.9) Average activity counts every 15 secs
- Actical night, mean (standard deviation) ([1]; 50 mg/day orally in 2 doses, Pre (before exposure to fleas)): 5.2 (3.3) Average activity counts every 15 secs
- Actical night, mean (standard deviation) [1, 3]: 22.1 (13.5) Average activity counts every 15 secs
- Actical night, mean (standard deviation) [1, 4]: 13.2 (11.8) Average activity counts every 15 secs
- Actical night, mean (standard deviation) [1, 5]: 11.5 (7.3) Average activity counts every 15 secs
- Actical night, mean (standard deviation) [1, 6]: 12.6 (9.9) Average activity counts every 15 secs
- Actical night, mean (standard deviation) [1, 7]: 9.8 (6.8) Average activity counts every 15 secs
- Actical night, mean (standard deviation) [1, 8]: 9.9 (7.4) Average activity counts every 15 secs
- Actical night, mean (standard deviation) ([1]; 150 mg/day orally in 2 doses, Fleas (day of challenge)): 6.2 (3.8) Average activity counts every 15 secs
- Actical night, mean (standard deviation) ([1]; 150 mg/day orally in 2 doses, Pre (before exposure to fleas)): 4.2 (2.2) Average activity counts every 15 secs
- Actical night, mean (standard deviation) [1, 9]: 14.6 (4.2) Average activity counts every 15 secs
- Actical night, mean (standard deviation) [1, 10]: 10.7 (6.8) Average activity counts every 15 secs
- Actical night, mean (standard deviation) [1, 11]: 10.6 (7.5) Average activity counts every 15 secs
- Actical night, mean (standard deviation) [1, 12]: 9.4 (4.2) Average activity counts every 15 secs
- Actical night, mean (standard deviation) [1, 13]: 10.4 (6.5) Average activity counts every 15 secs
- Actical night, mean (standard deviation) [1, 14]: 11.2 (7.4) Average activity counts every 15 secs
- Actical night, mean (standard deviation) ([1]; 300 mg/day orally in 2 doses, Fleas (day of challenge)): 6.8 (3.0) Average activity counts every 15 secs
- Actical night, mean (standard deviation) ([1]; 300 mg/day orally in 2 doses, Pre (before exposure to fleas)): 7.0 (3.8) Average activity counts every 15 secs
- Actical night, mean (standard deviation) [1, 15]: 24.6 (22.5) Average activity counts every 15 secs
- Actical night, mean (standard deviation) [1, 16]: 11.9 (4.8) Average activity counts every 15 secs
- Actical night, mean (standard deviation) [1, 17]: 16.8 (9.5) Average activity counts every 15 secs
- Actical night, mean (standard deviation) [1, 18]: 20.7 (10.5) Average activity counts every 15 secs
- Actical night, mean (standard deviation) [1, 19]: 16.2 (13.2) Average activity counts every 15 secs
- Actical night, mean (standard deviation) [1, 20]: 13.3 (10.2) Average activity counts every 15 secs
- Control of nighttime activity back to baseline ([1]; Test Compound doses, in particular 50 mg, BID): positive efficacy
- Total score ctb (total lesion score compared to baseline), mean (standard deviation) [2, 4]: −3.7 (4.9)
- Total score ctb (total lesion score compared to baseline), mean (standard deviation) [2, 5]: −2.8 (5.5)
- Total score ctb (total lesion score compared to baseline), mean (standard deviation) [2, 6]: −1.9 (7.1)
- Total score ctb (total lesion score compared to baseline), mean (standard deviation) [2, 7]: −2.8 (6.4)
- Total score ctb (total lesion score compared to baseline), mean (standard deviation) [2, 8]: −8.7 (9.9)
- Total score ctb (total lesion score compared to baseline), mean (standard deviation) [2, 10]: −2.3 (3.3)
- Total score ctb (total lesion score compared to baseline), mean (standard deviation) [2, 11]: −3.9 (4.0)
- Total score ctb (total lesion score compared to baseline), mean (standard deviation) [2, 12]: −6.4 (3.3)
- Total score ctb (total lesion score compared to baseline), mean (standard deviation) [2, 13]: −5.0 (3.8)
- Total score ctb (total lesion score compared to baseline), mean (standard deviation) [2, 14]: −8.8 (8.8)
- Reduction of the lesion score (inhibition) compared with prednisolone ([2]; 300 mg, 150 mg, 50 mg): in the same range as the potent corticosteroid prednisolone
- Total score ctb (total lesion score compared to baseline), mean (standard deviation) [2, 16]: −3.6 (9.1)
- Total score ctb (total lesion score compared to baseline), mean (standard deviation) [2, 17]: −4.1 (6.4)
- Total score ctb (total lesion score compared to baseline), mean (standard deviation) [2, 18]: −7.6 (8.4)
- Total score ctb (total lesion score compared to baseline), mean (standard deviation) [2, 19]: −7.6 (9.7)
- Total score ctb (total lesion score compared to baseline), mean (standard deviation) [2, 20]: −6.7 (8.1)
